Experimental data reported in ChEMBL document CHEMBL1201862, “PubChem BioAssay data set” (2004).
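Following 48 hours of exposure in 96-well plates, responses at five concentrations were used to interpolate endpoints linearly. The concentration for 50% growth inhibition is given as GI50.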 Activity calls are given as the source filed them. Cut-off read from the data, not from the text of the source: active = GI50 up to about 1.1 µM and inactive = higher.

Experiments:
Test in all cases: NCI tumour cell line growth inhibition, 48 h
[1] = tested on: SK-MEL-2
[2] = tested on: A549
[3] = tested on: SNB-19
[4] = tested on: SN12C
[5] = tested on: HT-29
[6] = tested on: HCT-116
[7] = tested on: LOX IMVI
[8] = tested on: LXFL 529
[9] = tested on: OVCAR-8
[10] = tested on: SF-539
[11] = tested on: SK-OV-3
[12] = tested on: NCI-H23
[13] = tested on: EKVX
[14] = tested on: 786-0
[15] = tested on: UACC-62
[16] = tested on: RPMI-8226
[17] = tested on: DU-145
[18] = tested on: MDA-N
[19] = tested on: PC-3
[20] = tested on: HOP-92

Measured: GI50

COC(=O)C(CCC1(C)OCCO1)=[N+]=[N-]
inactive: [1] > 100 µM | [2] > 100 µM | [3] > 100 µM | [4] > 100 µM | [5] > 100 µM | [6] > 100 µM | [7] > 100 µM | [8] > 100 µM | [9] > 100 µM | [10] > 100 µM | [11] > 100 µM | [12] > 100 µM | [13] > 100 µM | [14] > 100 µM

Cc1cccc(NC(=O)CSc2nnc(-c3ccc(/N=C\c4ccc(Cl)cc4)cc3)o2)c1
inactive: [1] > 100 µM | [2] > 100 µM | [3] > 100 µM | [4] > 100 µM | [5] > 100 µM | [6] > 100 µM | [15] > 100 µM | [7] 72.9 µM | [8] > 100 µM | [16] > 100 µM | [9] > 100 µM | [11] > 100 µM | [12] > 100 µM | [13] > 100 µM | [14] > 100 µM

CC(C)=CCc1cc(C2COc3cc4c(c(O)c3C2=O)C=CC(C)(C)O4)c(O)cc1O (stereo unspecified)
inactive: [1] 17.7 µM | [17] 14.5 µM | [2] 12.7 µM | [3] 19.3 µM | [4] 13.5 µM | [5] 16.6 µM | [6] 17.3 µM | [15] 15.7 µM | [7] 17.7 µM | [16] 6.43 µM | [9] 21.5 µM | [18] 14.4 µM | [10] 16.5 µM | [11] 15.7 µM | [12] 15.6 µM | [19] 12.4 µM | [13] 12.7 µM | [14] 19 µM | [20] 16.7 µM

Oc1c(-c2ccccc2)nc2ccccn12
inactive: [1] > 100 µM | [2] > 100 µM | [3] > 100 µM | [4] > 100 µM | [5] > 100 µM | [6] > 100 µM | [15] > 100 µM | [8] > 100 µM | [9] > 100 µM | [10] > 100 µM | [11] > 100 µM | [12] > 100 µM | [13] > 100 µM | [14] > 100 µM

O=C1c2c(Br)sc(Br)c2[C@@H](O)[C@H]1O
inactive: [1] 17.1 µM | [17] 16.4 µM | [2] 20.9 µM | [3] 19.5 µM | [4] 16.3 µM | [5] 19.1 µM | [6] 16.8 µM | [15] 16.7 µM | [7] 7.13 µM | [16] 21.7 µM | [9] 14.1 µM | [18] 16.3 µM | [10] 15.9 µM | [11] 15.6 µM | [12] 7.21 µM | [19] 17.5 µM | [13] 16.7 µM | [14] 15.2 µM | [20] 19.2 µM

CCCCCCCCCC(=O)CC(=O)c1c(O)cccc1O
inactive: [1] 30.6 µM | [2] 28.8 µM | [3] 53.1 µM | [4] 24.4 µM | [5] 27.3 µM | [6] 33.4 µM | [15] 33.4 µM | [7] 21.3 µM | [8] 38.8 µM | [16] 25.6 µM | [9] 38 µM | [10] 45.4 µM | [11] 20.5 µM | [12] 30.5 µM | [13] 29.2 µM | [14] 18.7 µM

COc1ccc(NC(=O)CC(=O)n2nc(C)c(/N=N/c3ccc(C)c(C)c3)c2C)cc1
inactive: [1] > 100 µM | [17] > 100 µM | [2] > 100 µM | [3] 58.3 µM | [4] > 100 µM | [5] > 100 µM | [6] > 100 µM | [15] > 100 µM | [7] 50.5 µM | [16] > 100 µM | [9] 29.7 µM | [18] > 100 µM | [10] 26.5 µM | [11] 10.8 µM | [12] 71.4 µM | [19] > 100 µM | [13] 15.1 µM | [14] 41.6 µM | [20] 16 µM
